Earlier results as cited in patent US9993551B2, “Combination therapies of EGFR inhibitors” (NOVARTIS AG, priority 2014, dated 2018).

Key:
[1] = system: EGFR activating and acquired resistance mutants (L858R, ex19del and T790M); settings: targeted covalent irreversible EGFR inhibitor
WT EGFR = WT EGFR (Homo sapiens, UniProt P00533)
[2] = system: EGFR mutant (L858R, ex19del and T790M) cancer models; settings: in vitro and in vivo

WT EGFR, sequence (P00533 25-1210): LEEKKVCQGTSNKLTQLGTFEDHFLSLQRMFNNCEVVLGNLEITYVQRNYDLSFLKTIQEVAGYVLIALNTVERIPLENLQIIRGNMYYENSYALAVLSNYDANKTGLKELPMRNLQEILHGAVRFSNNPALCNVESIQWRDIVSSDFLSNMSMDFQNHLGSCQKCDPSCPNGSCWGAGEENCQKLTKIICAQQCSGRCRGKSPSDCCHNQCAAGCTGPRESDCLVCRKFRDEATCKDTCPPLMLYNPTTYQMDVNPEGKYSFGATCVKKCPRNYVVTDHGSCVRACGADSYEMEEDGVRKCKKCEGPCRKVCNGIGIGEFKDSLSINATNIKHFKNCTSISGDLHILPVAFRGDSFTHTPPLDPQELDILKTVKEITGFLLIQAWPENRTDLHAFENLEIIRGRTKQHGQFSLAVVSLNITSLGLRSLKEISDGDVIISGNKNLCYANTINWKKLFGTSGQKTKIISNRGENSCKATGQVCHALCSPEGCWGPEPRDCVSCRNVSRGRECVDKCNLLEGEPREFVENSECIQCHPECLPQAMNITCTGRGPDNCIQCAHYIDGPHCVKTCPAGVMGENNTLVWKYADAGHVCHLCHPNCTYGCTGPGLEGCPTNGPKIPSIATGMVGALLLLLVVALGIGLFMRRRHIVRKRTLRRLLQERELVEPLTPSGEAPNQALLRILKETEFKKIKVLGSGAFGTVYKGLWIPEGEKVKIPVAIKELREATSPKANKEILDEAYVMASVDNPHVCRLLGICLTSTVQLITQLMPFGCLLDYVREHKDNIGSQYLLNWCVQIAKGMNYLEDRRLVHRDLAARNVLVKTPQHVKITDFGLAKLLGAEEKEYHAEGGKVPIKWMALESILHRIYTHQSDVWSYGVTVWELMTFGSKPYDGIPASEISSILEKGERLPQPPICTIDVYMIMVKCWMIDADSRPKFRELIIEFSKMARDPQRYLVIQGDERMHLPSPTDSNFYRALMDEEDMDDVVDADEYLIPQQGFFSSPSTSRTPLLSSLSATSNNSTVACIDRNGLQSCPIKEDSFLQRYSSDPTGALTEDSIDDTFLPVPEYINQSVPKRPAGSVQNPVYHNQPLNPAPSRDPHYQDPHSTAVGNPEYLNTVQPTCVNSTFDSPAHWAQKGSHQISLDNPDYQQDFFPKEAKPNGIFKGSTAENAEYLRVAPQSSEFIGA

- effect on WT EGFR (WT EGFR): sparing WT EGFR
SMILES: Cc1cc(C(=O)Nc2nc3cccc(Cl)c3n2[C@@H]2CCCCN(C(=O)/C=C/CN(C)C)C2)ccn1 [EGF816, (R,E)-N-(7-chloro-1-(1-(4-(dimethylamino)but-2-enoyl)azepan-3-yl)-1H-benzo[d]imidazol-2-yl)-2-methylisonicotinamide]
- inhibition of mutant EGFR [1]: selectively inhibits
- efficacy in EGFR mutant cancer models [2]: significant efficacy
